Experimental data: patent US4675337A, “Non-mutagenic 1,2-disubstituted 4-nitro-imidazoles useful as antiprotozoal agents” (priority 1986, dated 1987)
Values after ≈ are worked out from the molar mass of the structure shown. Where two headings read alike, the source gives them in different places.

What was measured:
T. foetus [1] = assay: Trichomonal activity in vitro; format: cell-based; settings: Tritrichomonas foetus, Table I, read-out: ED50 (T. foetus) in vitro
T. foetus [2] = assay: Trichomonal activity in vivo: survival of mice infected i.p. with T. foetus; settings: Tritrichomonas foetus, po, 336 h
Description: Mice were infected through intraperitoneal (I.P.) injection of 1.4×10^7 T. foetus. Each compound disclosed in Table I below was dissolved in an aqueous vehicle, dosed to groups of mice (consisting of five) by gavage. The mice were dosed once per day for four consecutive days with doses ranging from 1-50 mg/kg. The effective dose of the compound, ED50, was calculated from the number of animals surviving a two week period.

Ames Salmonella TA100 = settings: for In vivo Safety Index (rel to flagyl): relative increase in safety (1/mutagenicity) at the ED50 dose, relative to flagyl
Text: This test involves the addition to a fermentation medium in which is growing a particular organism identified as Ames Salmonella TA100, and measuring the number of mutant organisms formed.

Rat hepatocytes = assay: Single strand DNA breaks in rat hepatocytes (elution); format: cell-based; settings: for Relative Elution Slope: relative to control 1.00, ≥3.0 significant
Text: *Measure of the extent of DNA strand cleavage. Only relative elution
slopes ≥3.0 are considered significant. Therefore, […]

[3] = Cytotoxicity in rat hepatocytes; format: cell-based; settings: relative to control cells
Text: **Relative viability is the number of hepatocytes surviving exposure to
the nitroimidazoles relative to the control cells.

[4] = Table I, gavage once per day for four consecutive days, survival over two weeks, read-out: ED50 (T. foetus) in vivo
[5] = Table II, read-out: T. foetus In Vivo (ED50)
[6] = Table III, read-out: T. foetus (ED50) In vivo
[7] = Table II, relative to ronidazole

Compound | IC50 (T. foetus [1]) [µg/mL] | ED50 (T. foetus [2]; [4]) [mg/kg] | ED50 (T. foetus [2]; [6]) [mg/kg] | Mutagenicity (Ames Salmonella TA100; Table III, Ames TA100 strain) [percent ronidazole] | also measured
Cn1cc([N+](=O)[O-])nc1[S+](C)[O-] (stereo not drawn) [Compound 6, 1-methyl-2-methylsulfinyl-4-nitroimidazole] | 14 (≈ 74 µM) | 2 to 5 |  |  | 
CC(C)Sc1nc([N+](=O)[O-])cn1C [Compound 10, 1-methyl-2-isopropylthio-4-nitroimidazole] | 4 (≈ 19.9 µM) | 10 to 50 |  |  | 
Cn1c([N+](=O)[O-])cnc1COC(N)=O [Ronidazole, 1-methyl-2-[(carbamoyloxy)methyl]-5-nitroimidazole, reference compound] |  |  | 5 to 10 | 100.0 | ED50 (T. foetus [2]; [5]): 2 to 5 mg/kg; mutants per plate (Ames Salmonella TA100; 3 μg per plate): 358 mutants per plate; mutants per plate (Ames Salmonella TA100; 30 μg per plate): 2682 mutants per plate; In vivo Safety Index (rel to flagyl) (Ames Salmonella TA100; Table II): 0.7; Mutagenicity (Ames Salmonella TA100; [7]): 100 percent Ronidazole
CC(C)S(=O)(=O)c1nc([N+](=O)[O-])cn1C [Compound 4, 1-methyl-2-isopropylsulfonyl-4-nitroimidazole] | 21 (≈ 90 µM) | 5 to 10 | 5 to 10 | 0.1 | 
Cn1cc([N+](=O)[O-])nc1S(=O)(=O)c1ccccc1 [Compound 5, 1-methyl-2-phenylsulfonyl-4-nitroimidazole] | 17 (≈ 63.6 µM) | 10 to 25 | 10 to 25 | 0.1 | 
CSc1nc([N+](=O)[O-])cn1C [Compound 7, 1-methyl-2-methylthio-4-nitroimidazole] | 2.1 (≈ 12.1 µM) | 5 to 10 |  |  | 
CCSc1nc([N+](=O)[O-])cn1C [Compound 8, 1-methyl-2-ethylthio-4-nitroimidazole] | 2.3 (≈ 12.3 µM) | 2 |  |  | ED50 (T. foetus [2]; [5]): 2 mg/kg; mutants per plate (Ames Salmonella TA100; 3 μg per plate): indistinguishable from background; mutants per plate (Ames Salmonella TA100; 30 μg per plate): indistinguishable from background; mutants per plate (Ames Salmonella TA100; 100 μg per plate): 30 mutants per plate; mutants per plate (Ames Salmonella TA100; 300 μg per plate): 65 mutants per plate; mutagenicity (conclusion in words) (Ames Salmonella TA100; Ames test): non-mutagenic; In vivo Safety Index (rel to flagyl) (Ames Salmonella TA100; Table II): > 1750; Mutagenicity (Ames Salmonella TA100; [7]): < 0.1 percent Ronidazole; Relative Elution Slope (Rat hepatocytes; 0.5 mM): 1.33; Relative Elution Slope (Rat hepatocytes; 1.5 mM): 1.23; Relative Elution Slope (Rat hepatocytes; 5.0 mM): 1.60; significant DNA strand breakage (in words) (Rat hepatocytes; up to 5.0 mM): did not cause significant DNA strand; viability at 500 µM ([3]; 0.5 mM): 107%; viability at 1500 µM ([3]; 1.5 mM): 105%; viability at 5000 µM ([3]; 5.0 mM): 102%
CCCSc1nc([N+](=O)[O-])cn1C [Compound 9, 1-methyl-2-propylthio-4-nitroimidazole] | 4 (≈ 19.9 µM) | 5 |  |  | 
CCn1cc([N+](=O)[O-])nc1S(C)(=O)=O [Compound 1] | 25 (≈ 114 µM) | 10 to 50 |  |  | 
CCCS(=O)(=O)c1nc([N+](=O)[O-])cn1C [Compound 3, 1-methyl-2-propylsulfonyl-4-nitroimidazole] | 27 (≈ 116 µM) | 5 to 10 | 5 to 10 | 0.1 | 
Cc1ncc([N+](=O)[O-])n1CCO [Flagyl, 1-(2-hydroxyethyl)-2-methyl-5-nitro-imidazole, reference compound] | 0.4 (≈ 2.34 µM) | 25 to 50 | 25 to 50 |  | ED50 (T. foetus [2]; [5]): 50 mg/kg; DNA strand breaks (in words) (Rat hepatocytes; at both 3.0 and 10.0 mM): caused breaks; viability at 3000 µM ([3]; 3.0 mM): 107%; viability at 10000 µM ([3]; 10.0 mM): 101%
CCS(=O)(=O)c1nc([N+](=O)[O-])cn1C [Compound 2, 1-methyl-2-ethylsulfonyl-4-nitroimidazole] | 18.5 (≈ 84.4 µM) | 2 to 5 | 2 to 5 | 0.1 | 
